Measurements published in US9079859B2, “Synthetic lethal targeting of glucose transport” (AUCKLAND UNISERVICES LIMITED, priority 2011, dated 2015).

Experiments:
Format in all cases: cell-based
GLUT1 = GLUT1 protein levels
From the text: Moreover, the levels of soluble GLUT1 protein were also unaffected by STF-31 (FIG. 8D). […] Active analogs, which selectively kill VHL-deficient cells through glucose uptake, docked within the central channel of GLUT1 (FIG. 3F).

RCC4 cells [1] = assay: XTT cell viability assay, RCC4; details: four days of treatment; compared to RCC4/VHL; concentration-dependent
Experimental: (§1) Cell Viability Assays. For 2,3-bis[2-methoxy-4-nitro-5-sulfophenyl]-2H-tetrazolium-5-carboxanilide (XTT) assays, five thousand cells were plated in 96-well plates. The next day, vehicle (DMSO) or drug was added by serial dilution. Four days later, media were aspirated, XTT solution (0.3 mg/ml of XTT (Sigma), […] N-methyl dibenxopyrazine methyl sulfate (Sigma) in phenol red-free media) was added, and the plates were incubated at 37° C. for 1-2 hours. Metabolism of XTT was quantified by measuring the absorbance at 450 nm. IC50s were calculated using linear interpolation. For clonogenic survival assays, three hundred cells were plated per 60 mm tissue culture dish. The cells were allowed to attach overnight and then treated with vehicle or drug for 14 days. Colonies were fixed and stained with crystal violet (0.1% crystal violet in 95% ethanol). All conditions were measured in triplicate and each experiment was done in duplicate or triplicate. To determine necrosis, cells were treated with drug for a given time point. Media and cells were collected, centrifugated, and resuspended in 0.4% trypan blue (Invitrogen). Live and dead cells were counted on a hematocytometer.

786-O cells = assay: Glucose uptake (2-deoxy-D-[3H]glucose), 786-O; details: 5 μM (FIG. 6C)
Experimental: (§2) Glucose Uptake. One hundred thousand cells were plated per well in a six-well plate. The next day, cells were treated with the indicated concentration of drug and incubated for the indicated time. Cells were then washed twice with phosphate-buffered saline, incubated in low-glucose medium for 30 minutes, and 3H-2-deoxyglucose (0.5 μCi) was added in 1 ml of glucose-free media for an additional hour. Cells were washed twice in PBS and lysed (0.2 N NaOH and 0.2% sodium dodecyl sulfate). Glucose uptake was quantified with a scintillation counter.

ACHN = assay: RCC panel sensitivity (Table 2); details: VHL wild-type
[2] = system: VHL-deficient and wild-type VHL cells; assay: Oxygen consumption
Experimental: Oxygen Consumption. Following treatment with vehicle or drug, cells were trypsinized, suspended at 5 million cells per ml in DMEM+10% FCS, and oxygen consumption was measured in 0.5 ml volume using an Oxytherm electrode unit (Hansatech).

LC3 = assay: Autophagy markers (vacuoles, LC3 processing); details: RCC4 and RCC4/VHL; 1.25, 2.5 and 5 μM
ACHN shVHL cells = assay: Clonogenic survival, ACHN with shRNA to VHL; details: clonogenic survival (FIG. 1E); only the VHL-silenced cells
Experimental: as §1

RCC4 cells [3] = assay: Necrotic cell death by trypan blue, RCC4; details: 5 μM, 3 days
Experimental: as §1

RCC4/VHL cells = assay: Glucose uptake (2-deoxy-D-[3H]glucose), RCC4/VHL
Experimental: as §2

[4] = system: RCC4 cells with HIF-1β silenced; assay: Glucose uptake in RCC4 cells with siRNA to HIF-1β
From the text: To further investigate the relationship between HIF and STF-31 toxicity, we silenced HIF-1β in RCC4 cells and assessed its affect on glucose uptake (FIG. 6D). Transiently inhibiting HIF-1β, the constitutively expressed binding partner of HIF-1α and HIF-2α reduces HIF activity in RCC4 cells to the levels found in wild-type VHL cells. Glucose uptake was insensitive to treatment with STF-31 when the HIF-1β was silenced in RCC4 cells, further supporting the concept that the HIF-dependent glucose uptake was responsible for the differential toxicity of STF-31 to VHL-deficient renal carcinomas (FIG. 2E).
as §2

RCC4 cells [5] = assay: Clonogenic survival, RCC4; details: STF-31 5 μM, media replaced, grown for a total of 10 days (FIG. 1D)
Experimental: as §1, with “The cells were allowed to attach overnight and then treated with vehicle or drug for 14 days.” left out

SN12C = assay: RCC panel sensitivity (Table 2); details: VHL wild-type
786/VHL = assay: RCC panel sensitivity (Table 2); details: VHL wild-type

CC(C)(C)c1ccc(S(=O)(=O)NCc2ccc(C(=O)Nc3cccnc3)cc2)cc1 [STF-31]
levels of soluble GLUT1 protein (GLUT1; soluble and insoluble fractions): unaffected | GLUT1 protein levels (GLUT1; time- or concentration-dependent (1.25-10 μM, 3 days)): did not affect | number of RCC4 cells (cell viability by XTT) (RCC4 cells [1]): significant decrease | glucose uptake in 786-O cells (786-O cells): impaired | 3-series sensitivity (sensitivity to STF-31) (ACHN): No | oxygen consumption, treated versus not treated cells [2]: no difference | morphologic or biochemical features of autophagy (vacuoles, LC3 processing) (LC3): did not induce | sensitivity of ACHN cells with VHL silenced by shRNA (ACHN shVHL cells): sensitive | RCC4 cells exhibiting necrotic cell death (RCC4 cells [3]): greater than 80% | glucose uptake in RCC4/VHL cells (RCC4/VHL cells; 2-deoxy-D-[3H]glucose): unaffected | glucose uptake in RCC4/VHL cells versus concentration (RCC4/VHL cells; increasing concentrations of STF-31): relatively stable | glucose uptake when HIF-1β was silenced in RCC4 cells [4]: insensitive | RCC4 cells killed following treatment (RCC4 cells [5]): Approximately 80% | 3-series sensitivity (sensitivity to STF-31) (SN12C): Yes | 3-series sensitivity (sensitivity to STF-31) (786/VHL): Yes
